Measurements: BindingDB's records for doi:10.1021/jm8011905 (National Taiwan University, 2009)

Molecular target: Genome polyprotein (Hepatitis C virus genotype 1b (isolate Taiwan), UniProt P29846)
Assay: Fluorescence Resonant Energy Transfer (FRET) Helicase Assay
Conditions: pH 7; 22 °C
Procedure: The enzyme was assayed the DNA helicase activity by using DNA substrate (annealed BHQ1-labeled release strand and FITC-labeled template strand) in the presence of test compound. The substrate was monitored by the fluorescence quenching of FITC. The assay mixture was added to a 384-well microplate and monitored continuously at an excitation of 485 nm and an emission of 518 nm using a Fluoroskan Ascent microplate fluorescence reader (LabSystems, VA). The original data were normalized by the formula of relative helicase activity (%). When the inhibition of helicase activity was more than 50% at a concentration of 100 uM, the IC50 values were determined by curve fitting using SigmaPlot2000 of logistic with three parameters.

Chain of Genome polyprotein (P29846 1027-1657 limits assumed): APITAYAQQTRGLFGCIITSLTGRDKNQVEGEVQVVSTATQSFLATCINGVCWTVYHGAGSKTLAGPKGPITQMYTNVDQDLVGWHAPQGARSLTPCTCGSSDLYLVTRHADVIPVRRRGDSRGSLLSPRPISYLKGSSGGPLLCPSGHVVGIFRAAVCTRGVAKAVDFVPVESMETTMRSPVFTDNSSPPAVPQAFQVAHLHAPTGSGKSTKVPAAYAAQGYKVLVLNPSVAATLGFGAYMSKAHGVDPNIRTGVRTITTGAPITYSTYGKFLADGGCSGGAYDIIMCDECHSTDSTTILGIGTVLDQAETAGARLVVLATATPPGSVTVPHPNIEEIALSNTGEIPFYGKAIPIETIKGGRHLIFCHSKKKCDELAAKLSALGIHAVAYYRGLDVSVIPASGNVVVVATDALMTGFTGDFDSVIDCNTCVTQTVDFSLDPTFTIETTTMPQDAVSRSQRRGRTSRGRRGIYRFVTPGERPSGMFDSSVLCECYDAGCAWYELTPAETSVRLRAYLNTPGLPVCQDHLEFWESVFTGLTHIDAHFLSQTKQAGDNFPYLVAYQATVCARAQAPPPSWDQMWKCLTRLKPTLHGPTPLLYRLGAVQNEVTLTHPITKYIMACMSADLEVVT

IC50: 40 µM
Compound: O=S(=O)(O)c1ccc(Nc2ccc([C+](c3ccc(Nc4cccc(S(=O)(=O)O)c4)cc3)c3ccc(Nc4cccc(S(=O)(=O)O)c4)cc3)cc2)cc1 [BHT, 1]
